Laboratory results published in PubChem BioAssay (NCI).
Several values for one entry are separate records, joined by “and”; a condition that tells them apart may be missing. Identical values can stand only once.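 Following 48 hours of exposure in 96-well plates, responses at five concentrations were used to interpolate endpoints linearly. GI50 marks 50% less growth. TGI is the concentration that stops growth completely.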

How the values were obtained:
Assay in all cases: inhibition of tumour cell growth, NCI panel, 48 h
[1] = test system: KM12 colon
[2] = test system: M14 melanoma
[3] = test system: RPMI-8226 leukemia
[4] = test system: SK-MEL-5 melanoma
[5] = test system: SN12C renal
[6] = test system: SW-620 colon
[7] = test system: HS 578T breast
[8] = test system: NCI/ADR-RES ovarian
[9] = test system: SK-MEL-2 melanoma
[10] = test system: DU-145 prostate

Compound | TGI [1] | TGI [2] | TGI [3] | TGI [4] | TGI [5] | TGI [6] | GI50 [7] | TGI [7] | GI50 [1] | GI50 [2] | GI50 [8] | TGI [8] | GI50 [3] | GI50 [9] | TGI [9] | GI50 [4] | GI50 [5] | GI50 [6] | GI50 [10] | TGI [10]
O=CN1CCN(C=S)CC1 | > 100 µM | > 100 µM | > 100 µM | > 100 µM | > 100 µM | > 100 µM | – | – | – | – | – | – | – | – | – | – | – | – | – | –
C=C1C(=O)O[C@H]2C[C@@H]1CCC1(C)OC1CC/C(C)=C/CC[C@H]2C (some centres not stated) | 43.1 µM | 31.9 µM | 41.9 µM | 31.5 µM | 35.5 µM | 36.9 µM | 24 µM | 61 µM | 22.2 µM | 18 µM | 18.5 µM | 35.4 µM | 20.1 µM | 48.5 µM | > 100 µM | 17.3 µM | 19 µM | 19.2 µM | – | –
CNC(=O)OCc1[nH]ccc2c(C)c3nc4ccc(OC)cc4c3cc12 | > 23.9 µM | > 100 µM | 10.6 µM | 12.8 µM | > 100 µM | > 26.9 µM | – | – | – | – | – | – | – | – | > 48 µM | – | – | – | – | –
COc1cc2c3c(n(CCCNCCNCCCN)c(=O)c2cc1OC)-c1cc2c(cc1C3=O)OCO2 | 14.5 µM | 12.5 µM | – | 20.3 µM | 7.17 µM | 10.7 µM | 1.38 µM | 7.93 µM | 2.61 µM | 3 µM | 21.1 µM | 94.6 µM | – | 2.59 µM | 10 µM | 6.41 µM | 1.66 µM | 2.03 µM | 4.6 µM | 17 µM
COc1ccc(C2=C(c3cc(OC)c(OC)c(OC)c3)C(=O)OC2)cc1OC | – | 1.76 µM | 0.961 µM | 1.5 µM | 73.1 µM | > 100 µM | 0.123 µM | 39.1 µM | < 0.0164 µM | 0.0231 µM | – | – | < 0.0199 µM | 0.0313 µM | > 100 µM | 0.0182 µM | 0.567 µM | 0.105 µM | 0.821 µM | > 100 µM
COC(=O)C1=Cc2c(cc(OC)c(OC)c2OC)[C@H](c2ccc(OC)c(OC)c2OC)C1C(=O)OC (some centres not stated) | > 100 µM | > 100 µM | > 100 µM | > 100 µM | > 100 µM | > 100 µM | – | – | – | – | – | – | – | – | – | – | – | – | – | –
NC1=NC(c2ccc(F)cc2)C2=C(N1)c1ccc3ccccc3c1OCC2 (configuration not stated) | > 100 µM | > 100 µM | – | > 100 µM | > 100 µM | – | 11.4 µM | > 100 µM | 4.45 µM | > 100 µM | 43.2 µM | > 100 µM | – | > 100 µM | > 100 µM | 5.01 µM | 22.2 µM | – | > 100 µM | > 100 µM
NC(N)=N/N=C/c1c(-c2ccc(Cl)c([N+](=O)[O-])c2)nc2ccccn12 | – | – | – | 41.3 µM | 3.66 µM | 3.16 µM | 24.2 µM | 60.2 µM | – | – | > 100 µM | > 100 µM | – | – | – | 13.3 µM | 1.87 µM | 1.46 µM | 1.94 µM | 5.6 µM
Clc1cc(Cl)cc(Nc2nc3ccccc3nc2-c2cccs2)c1 | – | – | > 100 µM | – | > 100 µM | > 100 µM | – | – | – | – | – | – | – | – | > 100 µM | – | – | – | – | –
NC1=C(Cl)C(=O)c2ccccc2C1=O | 25.7 µM | 3.26 µM | 43.6 µM | 2.09 µM | 15.9 µM | 14.6 µM | – | – | – | – | – | – | – | – | > 44 µM | – | – | – | – | 3.84 µM
C[Si]12OCCCN(CCO1)CCO2 | > 100 µM | – | > 100 µM | > 100 µM | > 100 µM | > 100 µM | – | – | – | – | – | – | – | – | > 100 µM | – | – | – | – | –
CC1CC2(CCC1OCc1ccccc1)OCCO2 (configuration not stated) | > 100 µM | > 100 µM | > 100 µM | > 100 µM | > 100 µM | > 100 µM | – | – | – | – | – | – | – | – | > 100 µM | – | – | – | – | –
CC(=O)O[C@H]1CC[C@@]2(C)C(=CC[C@@H]3C2CC[C@]2(C)Nc4[nH]ncc4CC32)C1 (some centres not stated) | 31.1 µM | 42.9 µM | 65.9 µM | 42.5 µM | – | > 100 µM | – | – | – | – | – | – | – | – | 72.7 µM | – | – | – | – | –
Cc1ccc(Oc2nc3ccccc3cc2-c2nnc(Cn3c(COc4ccccc4)nc4ccccc43)o2)cc1 | 11.8 µM | 7.4 µM | 8.45 µM | 3.97 µM | 11.9 µM | 4.79 µM | 4.39 µM | 33.8 µM | 2.85 µM | 2.33 µM | 2.84 µM | 10.9 µM | 2.39 µM | – | – | 1.9 µM | 2.76 µM | 1.08 µM | 5.46 µM | 45.7 µM
COc1ccccc1NC(=O)CC(=O)NNCC(=O)Nc1nnc(-c2ccccc2)o1 | > 100 µM | > 100 µM | > 100 µM | > 100 µM | > 100 µM | > 100 µM | – | – | – | – | – | – | – | – | > 100 µM | – | – | – | – | –
CCC[CH2][Sn]1([CH2]CCC)[O]C(=O)CN=Cc2ccccc2[O]1 | 2.18 µM | 1.37 µM | 0.607 µM | > 100 µM | 1.13 µM | 0.434 µM | – | – | 0.695 µM | 0.368 µM | – | – | 0.187 µM | 0.22 µM | 0.555 µM | 1.49 µM | 0.292 µM | 0.175 µM | – | –

Compound | TGI [1] | TGI [2] | TGI [3] | TGI [4] | TGI [5] | TGI [6] | GI50 [7] | TGI [7] | GI50 [1] | GI50 [2] | GI50 [8] | TGI [8] | GI50 [3] | GI50 [9] | TGI [9] | GI50 [4] | GI50 [5] | GI50 [6] | GI50 [10] | TGI [10]
CC1=CC2CC(C)C1(C)CCc1ccoc12 (configuration not stated) | > 100 µM | > 100 µM | > 100 µM | > 100 µM | > 100 µM | > 100 µM | – | – | – | – | – | – | – | – | > 100 µM | – | – | – | – | –
COc1ccc(-c2nc3sc4c(c3c(=O)[nH]2)CCCC4)c2ccccc12 | > 100 µM | 0.63 µM and 0.135 µM | > 100 µM | 5.52 µM | > 100 µM | > 100 µM | – | 0.093 µM | – | – | – | 4.95 µM and 2.75 µM | – | – | – | – | 0.514 µM and 0.0702 µM | – | – | 17.5 µM
CN1C(=O)C(c2c[nH]c3ccccc23)=C(c2c(-c3c[nH]c4ccccc34)[nH]c3ccccc23)C1=O | 7.61 µM | 4.79 µM | 17.5 µM | – | – | – | 3 µM | 13.6 µM | 2.13 µM | 1.76 µM | 14.7 µM | 42.8 µM | 3.54 µM | – | – | – | 2.64 µM | – | 3 µM | 12.2 µM
COc1ccc(-c2csc3c2-n2cccc2C3=O)cc1O | > 100 µM | – | 3.16 µM | 0.237 µM | > 100 µM | > 100 µM | < 0.0165 µM | > 100 µM | 0.0653 µM | – | 0.0143 µM | > 100 µM | 0.0176 µM | – | – | 0.0326 µM | 0.0365 µM | < 0.0122 µM | – | –
Cc1c(O)c(=O)ccn1CCO | > 100 µM | > 100 µM | > 100 µM | > 100 µM | > 100 µM | > 100 µM | – | – | – | – | – | – | – | – | > 100 µM | – | – | – | – | –
Cc1ccc2[nH]c(C(=O)NN3C(=O)C(C)SC34CCCCC4C)c(-c3ccccc3)c2c1 (configuration not stated) | 39.9 µM | 38.8 µM | 64 µM | 33.5 µM | 31.6 µM | 53.2 µM | 14.4 µM | 43.2 µM | 18.5 µM | 20.2 µM | – | – | 21.4 µM | 12 µM | 26.5 µM | 16 µM | 15.7 µM | 19.8 µM | 21.7 µM | 50.7 µM
C=CCN(CC=C)CC(C(C)=O)C(c1ccccc1)c1c(O)c2ccccc2oc1=O (configuration not stated) | 37.9 µM | > 100 µM | > 100 µM | > 100 µM | > 100 µM | > 100 µM | – | – | – | – | – | – | – | – | > 100 µM | – | – | – | – | –
O=C(O)c1ccc(C2C3C=CC(C3)C2[N+](=O)[O-])cc1 (configuration not stated) | > 100 µM | > 100 µM | > 100 µM | > 100 µM | > 100 µM | > 100 µM | – | – | – | – | – | – | – | – | > 100 µM | – | – | – | – | –
Cn1c(=O)oc2cc(C3CCC(=O)N3Cc3ccc(Cl)cc3)ccc21 (configuration not stated) | > 100 µM | > 100 µM | > 100 µM | > 100 µM | > 100 µM | > 100 µM | – | – | – | – | – | – | – | – | > 100 µM | – | – | – | – | –
COc1ccccc1NC(=O)C1=C(C)NC(C)=C(C(=O)Nc2ccccc2OC)C1c1cccc2c1OCO2 | > 100 µM | > 100 µM | > 100 µM | > 100 µM | > 100 µM | > 100 µM | – | – | – | – | – | – | – | – | > 100 µM | – | – | – | – | –
O=C(O)CCCNS(=O)(=O)c1ccc2ccccc2c1 | > 100 µM | > 100 µM | > 100 µM | > 100 µM | > 100 µM | > 100 µM | – | – | – | – | – | – | – | – | > 100 µM | – | – | – | – | –
CC(=O)OC12CC(C)C3(O)C4C=C(C)C(=O)[C@@]4(O)CC(CO)=C[C@H]3C1C2(C)C (some centres not stated) | > 1000 µM | > 1000 µM | > 1000 µM | > 1000 µM | – | – | – | – | > 1000 µM | > 1000 µM | > 1000 µM | > 1000 µM | > 1000 µM | > 1000 µM | > 1000 µM | 33.4 µM | – | – | > 1000 µM | > 1000 µM
COc1cc(OC)cc(-c2cncn2-c2ccc(-c3nc4cc(OC)cc(OC)c4s3)cc2)c1 | > 100 µM | – | – | > 100 µM | > 100 µM | – | 5.02 µM | > 100 µM | 4.52 µM | – | 2.58 µM | > 100 µM | – | 9.69 µM | > 100 µM | 3.29 µM | > 100 µM | – | > 100 µM | > 100 µM
CCOC(=O)c1cnc2cc3cccccc3n2c1=O | > 100 µM | > 100 µM | > 100 µM | – | > 100 µM | > 100 µM | – | – | – | – | – | – | – | – | > 100 µM | – | – | – | – | –
CC1(C)N[P+]2(Nc3ccccc3O2)OC1=O (configuration not stated) | > 100 µM | > 100 µM | > 100 µM | > 100 µM | > 100 µM | > 100 µM | – | > 100 µM | – | – | – | > 100 µM | – | – | – | – | – | – | – | > 100 µM
